In US20250352535A1, “MDM2 DEGRADERS AND USES THEREOF” (Kymera Therapeutics, Inc., priority 2022, published 2025):

Key:
[1] = tested on: p53 pathway and cleaved caspase-3 (CC-3) in MV4;11 tumors; assay: IHC analysis of MV4;11 tumors; format: in vivo, NOD/SCID mice; details: n=3/group
Protocol: (§1) RS4;11 and MV4;11 tumors were established subcutaneously in the hind flank of NOD/SCID mice. Mice were randomized and treated with Compound A as either a single pulse dose or weekly for 3 weeks at doses matched for total AUC. MDM2 SMI DS-3032 (Milademetan) was dosed at its clinically equivalent dose and regimen of 3 days on/11 days off. Pharmacodynamic effects were assessed at mRNA level by RT-qPCR and protein level by quantitative targeted mass spectrometry and immunohistochemistry.

[2] = tested on: p53 pathway and cleaved caspase-3 (CC-3) in RS4;11 tumors; assay: IHC analysis of RS4;11 tumors; format: in vivo, NOD/SCID mice; details: n=3/group
Protocol: as §1

MV4;11 AML model = assay: MV4;11 AML xenograft efficacy; format: in vivo, NOD/SCID mice
Protocol: as §1

RS4;11 ALL model = assay: RS4;11 ALL xenograft efficacy; format: in vivo, NOD/SCID mice; details: for median survival: n=6 animals/group
Protocol: as §1

MOLM-13 xenograft model = assay: MOLM-13 xenograft combination study; format: in vivo
Measured pKa = format: physicochemical; details: free base
Protocol: (§2) Compound A for injection was manufactured as a concentrated frozen solution containing 10 mg/mL of free base intended to be diluted with an intravenous (IV) infusion vehicle (normal saline, 0.9% sodium chloride, injection). […] To achieve drug concentration of 10 mg/mL, formulation development focused on identifying acceptable pharmaceutical solvents, surfactants, and pH modifiers to achieve the required solubility of Compound A.

MOLM-13 cell line = assay: Combination apoptosis and cell killing in MOLM-13; format: cell-based; details: combination with venetoclax and midostaurin
Protocol: (§3) All cell lines were cultured according to recommended procedures unless otherwise noted. For growth inhibition assays, cells were treated with compounds for indicated time points. Viability was assessed using Promega® CellTiter-Glo® assay, and apoptosis was assessed using Promega® Caspase-Glo® 3/7 assay. Cell cycle arrest and/or apoptosis in response to single agent or combination treatment was assessed using flow cytometry analysis on cells treated for 24h.

[3] = tested on: multiple heme indications (AML, T cell lymphomas, mantle cell lymphoma, DLBCL); assay: In vitro activity across heme indications; format: cell-based; details: mantle cell lymphoma and DLBCL most sensitive
Protocol: as §3

[4] = tested on: CTG-2227 AML patient-derived xenograft (PDX) model; assay: AML PDX model CTG-2227; format: in vivo, mice; details: 1 mg/kg, Q3W, IV
Protocol: (§4) AML patient cells from leukapheresis were intravenously (IV) injected and established in immunocompromised host strain mice. Surrogate animals were used to determine the level of engraftment targeting a threshold of ˜20% huCD45+ cells in BM. Mice were randomized on study and treatment was initiated. Vehicle and Compound A, 1 mg/kg were administered IV, every three weeks for six weeks (total of two doses of Compound A). At study end, whole blood, bone marrow and spleen were assessed by flow cytometry.

CTG-2700 AML PDX model = assay: AML PDX model CTG-2700; format: in vivo, mice; details: 1 mg/kg, Q3W, IV
Protocol: as §4

[5] = tested on: p53 pathway (p53, p21, PHLDA3); assay: Targeted proteomic analysis of RS4;11 tumors: p53 pathway biomarkers; format: in vivo, NOD/SCID mice
Protocol: as §1

[6] = tested on: hCD45+ cells in bone marrow and AML blasts; assay: Flow cytometry of AML PDX models; format: in vivo, mice; details: 1 mg/kg, Q3W
Protocol: as §4

[7] = tested on: acute lymphoblastic leukemia (ALL) cell line RS4;11; assay: MDM2/p53 pathway and apoptosis in RS4;11 cells; format: cell-based
[8] = Solubility/stability screening in IV excipients; format: physicochemical
Source text: Initial solubility screening of Compound A focused on using different enabling excipients suitable for IV administration. The screening included surfactants, cosolvents, and pH modifiers (i.e., glacial acetic acid, and hydrochloric acid). […] As a result, the selected formulation to support the GLP toxicology study was comprised of 30% propylene glycol, 3% Solutol HS15, and 0.01 M in acetate buffer at pH 5±0.2.
The clinical formulation development was centered on using organic concentrates without water to avoid hydrolysis of Compound A. Additional solubility and stability evaluations of Compound A were conducted with different types of co-solvents and surfactants with and without butylated hydroxytoluene as antioxidant.

[9] = Aqueous solubility of drug substance; format: physicochemical; details: aqueous media over pH 3 to 8, aqueous buffer, pH range between 3 to 8
Protocol: as §2

[10] = tested on: apoptotic gene BBC3 in RS4;11 tumors; assay: qPCR analysis of RS4;11 tumors; format: in vivo, NOD/SCID mice
Protocol: as §1

MDM2 = target: T1, MDM2 (Homo sapiens, UniProt Q00987); assay: Targeted proteomic analysis of RS4;11 tumors: MDM2; format: in vivo, NOD/SCID mice; details: one hour post dosing
T1 construct: RS4;11 and MV4;11 tumors were established subcutaneously in the hind flank of NOD/SCID mice; endogenous in cells; host or cells: RS4;11 xenograft tumors in NOD/SCID mice
Protocol: as §1

[11] = tested on: panel of solid and hematological tumor cell lines; assay: Cell growth inhibition across tumor cell line panel; format: cell-based; details: versus MDM2 small molecule inhibitors (SMIs)
Protocol: as §3

Measured Log D = format: physicochemical; details: free base
[12] = tested on: OCI-LY10 p53^WT ABC-subtype DLBCL xenograft model; assay: OCI-LY10 DLBCL xenograft; format: in vivo
[13] = tested on: TMD8 p53^MUT ABC-subtype DLBCL xenograft model; assay: TMD8 DLBCL xenograft; format: in vivo
CTG-2240 AML PDX model = assay: AML PDX model CTG-2240; format: in vivo, mice; details: 1 mg/kg, Q3W, IV
Protocol: as §4

T1 sequence (Q00987 whole entry): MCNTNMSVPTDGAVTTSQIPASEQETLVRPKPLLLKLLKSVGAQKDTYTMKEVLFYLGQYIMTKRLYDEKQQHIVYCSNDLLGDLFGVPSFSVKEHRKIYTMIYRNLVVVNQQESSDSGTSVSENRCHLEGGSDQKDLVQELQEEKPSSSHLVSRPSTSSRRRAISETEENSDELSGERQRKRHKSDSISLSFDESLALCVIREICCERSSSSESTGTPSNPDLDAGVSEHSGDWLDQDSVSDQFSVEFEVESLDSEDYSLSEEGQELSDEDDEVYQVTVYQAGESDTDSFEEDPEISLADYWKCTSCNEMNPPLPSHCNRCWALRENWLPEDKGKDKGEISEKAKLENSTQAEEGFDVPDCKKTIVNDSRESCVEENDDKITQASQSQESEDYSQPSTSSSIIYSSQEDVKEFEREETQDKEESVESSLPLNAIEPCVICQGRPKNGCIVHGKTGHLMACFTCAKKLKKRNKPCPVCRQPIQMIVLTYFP

Structure (SMILES): CC1(C)CCC2(CC1)N[C@@H](C(=O)N[C@@H]1CC[C@@H](C(N)=O)OC1)[C@H](c1ccnc(Cl)c1F)[C@]21C(=O)Nc2cc(Cl)ccc21 [DS-3032, Milademetan, reference compound]
- induction of CC-3 (IHC) ([1]; similar to the lower weekly dosing regimen of Compound A): modest
- induction of CC-3 (IHC) ([2]; treatment with the SMI): not observed
- complete responses (MV4;11 AML model; clinically equivalent dose and regimen, n=6 animals/group): No complete responses
- median survival (RS4;11 ALL model; clinically equivalent dosing regimen (3 days on/11 days off)): 12 days

Structure (SMILES): Cn1c(=O)n(C2CCC(=O)NC2=O)c2ccc(C3CCN(C(=O)[C@H]4CC[C@H](NC(=O)[C@@H]5NC6(CCCCC6)[C@@]6(C(=O)Nc7cc(Cl)ccc76)[C@H]5c5cccc(Cl)c5F)CC4)CC3)cc21 (stereo partly drawn) [Compound A, (3′R,4′S,5′R)-6″-chloro-4′-(3-chloro-2-fluorophenyl)-N-((1R,4R)-4-(4-(1-(2,6-dioxopiperidin-3-yl)-3-methyl-2-oxo-2,3-dihydro-1H-benzo[d]imidazol-5-yl)piperidine-1-carbonyl)cyclohexyl)-2″-oxodispiro[cyclohexane-1,2′-pyrrolidine-3′,3″-indoline]-5′-carboxamide]
- anti-tumor activity (MOLM-13 xenograft model; single dose of Compound A in combination with daily dosing of venetoclax): sustained tumor regression
- pKa (Measured pKa): 5
- induction of apoptosis and cell killing (MOLM-13 cell line): enhances induction of apoptosis and cell killing
- in vitro activity [3]: active across multiple heme indications
- robust activation of the p53 pathway and induction of CC-3 (IHC) ([1]; exposure-matched weekly dosing): not
- activation of the p53 pathway and induction of CC-3 (IHC) ([1]; single dose): robust activation of the p53 pathway and induction of cleaved caspase-3 (CC-3)
- tumor response [4]: tumor regression
- tumor response (CTG-2700 AML PDX model): partial responses
- proteomics biomarkers p53, p21 (cell cycle arrest marker) and PHLDA3 (apoptotic marker) [5]: upregulation
- activation of the p53 pathway and induction of CC-3 (IHC) ([2]; single dose versus exposure-matched weekly dosing): more robust activation of the p53 pathway and induction of cleaved caspase-3 (CC-3)
- complete responses (MV4;11 AML model; single dose at 3 mg/kg): 5 of 6
- tumor-free on study (MV4;11 AML model; single dose at 3 mg/kg, 80 days post dosing): 4 of 6
- tumor response (RS4;11 ALL model; exposure-matched weekly dosing): tumor stasis
- plasma concentration required for tumor regression (RS4;11 ALL model; maintained for 12 to 22 hours): above 0.01 uM
- median survival (RS4;11 ALL model; single dose at 3 mg/kg): 50 days
- tumor response (RS4;11 ALL model; single doses): tumor regression
- hCD45+ cells in bone marrow and AML blasts [6]: significantly reduces
- effect on p53-dependent upregulation of MDM2 protein levels ([7]; compared with reversible SMIs): can overcome the p53-dependent upregulation of MDM2 protein levels
- apoptosis in washout experiments ([7]; pulsed dose, mediated through p53 target genes): can lead to apoptosis
- p53 stabilization ([7]; short 2 hour exposures, versus SMIs): more potently stabilize p53 than SMIs
- solubility and stability ([8]; combination of polyethylene glycol 400, ethanol, polysorbate 80 and butylated hydroxytoluene, 10 mg/mL): sufficient solubility and stability
- solubility ([8]; formulations containing propylene glycol, polyethylene glycol 400, Solutol HS15 and polysorbate 80 at low pH): significantly enhanced
- solubility [9]: < 10 µg/mL
- plasma concentration required for induction of the apoptotic gene BBC3 ([10]; RS4;11 tumors): above 0.02 uM
- increase in apoptotic markers (qPCR) ([10]; exposure-matched weekly dosing, n=3/group): only a moderate increase
- induction of the apoptotic gene BBC3 (qPCR) ([10]; single doses that lead to tumor regression, n=3/group): robust induction
- degradation of MDM2 in tumors (MDM2): robust degradation
- cell growth inhibition compared to SMIs [11]: > 200 fold
- logD (Measured Log D): > 3.7
- activity in xenograft model [12]: highly active
- highly active in xenograft model [13]: not
- tumor response (CTG-2240 AML PDX model): partial responses

Structure (SMILES): Nc1ccn([C@@H]2O[C@H](CO)[C@@H](O)[C@@H]2O)c(=O)n1 [cytarabine]
- anti-tumor activity (MOLM-13 xenograft model; combination of cytarabine and venetoclax): no significant anti-tumor activity
- anti-tumor activity (MOLM-13 xenograft model; cytarabine alone): no significant anti-tumor activity
